As a reminder, the Kd is the free concentration of one partner at which half of the binding sites on the other are occupied at equilibrium, for simple one-to-one binding. A lower Kd goes with higher affinity.

The record followed here is patent US20260132547A1, “NOVEL PHAGE LIBRARIES OF BICYCLIC PEPTIDES” (priority 2024, published 2026).

Data set [1] is described as follows: Stability of bicyclic peptide in DMSO-d6/PBS/D2O, monitored by 1H NMR. The format is physicochemical. The note with it: 0.96 mM in DMSO-d6/PBS (pH 5.9)/D2O (1/8/1), 1 week. The protocol: FIG. 38. Stability studies of 5h (0.96 mM) in DMSO-d6/PBS (pH 5.9)/D2O (1/8/1) monitored by ^1H NMR.
Data set [2] in a line: Stability of bicyclic peptide in PBS at varied pH, monitored by LC-MS. The format is physicochemical. The note with it: 200 μM in PBS, pH 5.1, pH 7.4 and pH 9.2, over 16 days. Here is the method:
FIGS. 37a-37c. FIG. 37a. LC-MS (280 nm) trace of the bicyclic peptide 5h in PBS pH 5.1 over 16 days. FIG. 37b. LC-MS (280 nm) trace of the bicyclic peptide 5h in PBS pH 7.4 over 16 days. FIG. 37c. LC-MS (280 nm) trace of the bicyclic peptide 5h in PBS pH 9.21 over 16 days.
The bicyclic peptide 5h was prepared according to above mentioned procedure and purified by RP-HPLC. The solution of bicyclic peptide 5h (200 μM) in PBS was incubated at pH 5.1, pH 7.4, and pH 9.2, respectively. The sample was analyzed by LC-MS at different time points over 16 days (Method C).

A short description of data set [3]: Hydrolysis of OSu ester in aqueous acetone/PBS, monitored by 1H NMR. It is filed as physicochemical. The source says: FIG. 15. Hydrolysis of OSu ester (S18) in 80% acetone/PBS (pH 7.4) monitored by ^1H NMR.
FIG. 16. Hydrolysis of OSu ester (S18) in 50% acetone/PBS (pH 7.4) monitored by ^1H NMR.

Data set [4] addresses SARS-CoV-2 Spike RBD (SARS-CoV-2), P0DTC2. Briefly: ELISA: plate coated with 100 nM SARS-CoV-2 Spike RBD, biotinylated bicyclic peptide titrated, streptavidin-HRP/TMB, A450; curve fitting. (ELISA stands for enzyme-linked immunosorbent assay.)

Entries after “also recorded” stand apart in the source; their conditions may differ. Numbered stars: 1 amine (or outer) side, 2 acyl side, 3 side chain; on linkers, the order of the positions; unused ones are H or OH. Bridge positions count the residues as written; N and C are the ends. Square brackets hold non-standard residues; d marks the D form. Peptide text beside a SMILES is read from it. X1 = O=C(c1cc(/C(=N/O)[*:2])cc(/C(=N/O)[*:3])c1)[*:1]; d(aIle) = CC[C@H](C)[C@@H](N)C(=O)O

Consider `CC[C@H](C)[C@H]1NC(=O)[C@H](CC(C)C)NC(=O)[C@H](C)NC(=O)c2cc3cc(c2)/C(=N/O)SC[C@H](NC(=O)CNC1=O)C(=O)N1CCC[C@H]1C(=O)N[C@@H](Cc1ccccc1)C(=O)N1CCC[C@H]1C(=O)N[C@@H](C)C(=O)N[C@@H](CCCNC(=N)N)C(=O)N[C@@H](Cc1c[nH]c2ccccc12)C(=O)N[C@H](C(N)=O)CS/C3=N\O` [5h] (AL[d(aIle)]GCPFPARWC-NH2; linker N-5-12 via X1), for which, in data set [1], the “Chemical stability (1H NMR profile)” value is listed as “no change of NMR profile”. Moreover, the “Chemical stability in PBS (LC-MS profile)” value in data set [2] is “remained intact; also recorded: no change of the LC-MS profile”.
With `O=C(ON1C(=O)CCC1=O)c1ccc(/C=N/O)cc1` [S18], the “Percentage of S20 (%)” value in data set [3] (acetone-d6/PBS/D2O (5/4/1), 20 min) is given as 12%; in data set [3] (acetone-d6/PBS/D2O (5/4/1), 1 h), 26%; in data set [3] (acetone-d6/PBS/D2O (5/4/1), 2 h), 33%; in data set [3] (acetone-d6/PBS/D2O (8/1/1), 20 min) it was “trace”; in data set [3] (acetone-d6/PBS/D2O (8/1/1), 1 h) it was “trace”; in data set [3] (acetone-d6/PBS/D2O (8/1/1), 20 h), 4%.
AISECNHIAEWMC (modifications not checked) [bicyclized NP10 (…)] returned a dissociation constant (Kd) in data set [4] of 0.4 µM.
AIDSCRYNHGWQC (modifications not checked) [bicyclized NP8 (…)] displayed a dissociation constant Kd in data set [4] of 3 µM.
